According to patent US7262280B1, “G-protein fusion receptors and constructs encoding same” (NPS Pharmaceuticals, Inc., priority 1998, dated 2007):

Key:
Format in all cases: cell-based
CaR/mGluR2*Gqi5 = biological target: T1, CaR/mGluR2*Gqi5 (Homo sapiens, UniProt P41180); assay: Calcium-activated chloride current in Xenopus oocytes injected with G-protein fusion receptor cRNA; settings: 100 μM, Xenopus laevis oocytes, holding −60 mV, FIG. 15
T1 construct: expressed in transfected cells; host or cells: Xenopus laevis oocytes injected with fusion receptor cRNA
Description: (§1) The different G-protein fusion receptors used in this example were as follows: mGluR2//CaR*Gqi5 (SEQ. ID. NO. 37), CaR/mGluR2*Gqi5 (SEQ. ID. NO. 33), and mGluR8//CaR*Gqi5 SEQ. ID. NO. 41.
(§2) Oocytes suitable for injection were obtained from adult female Xenopus laevis toads using procedures described in C. J. Marcus-Sekura and M. J. M. Hitchcock, Methods in Enzymology, Vol. 152 (1987).
(§3) Receptor fusion cRNAs were dissolved in water and 50 nl (12.5 ng/oocyte) were injected into individual oocytes. Following injection, oocytes were incubated at 16° C. in MBS containing 1 mM CaCl2 for two to seven days prior to electrophysiological recording.
(§4) Test substances were applied by superfusion at a flow rate of about 5 ml/minute. Receptor fusion activation was determined by measuring the increase in calcium-activated chloride current (ICl). Increases in ICl were quantified by measuring the peak inward current stimulated by activating agent, relative to the holding current at −60 mV. […] Application of 100 μM Gd^3+ activated the CaR/mGluR2*Gqi5.

[1] = biological target: T2, chimeric CaR/GABABR2 (CaR extracellular and transmembrane domains, and intracellular GABABR2 domain) (Homo sapiens, UniProt O75899+P41180); assay: Calcium-activated chloride current in Xenopus oocytes co-injected with chimeric CaR/GABABR2 RNA and Gα15 RNA; settings: 100 μM, voltage-clamped, 72-hour incubation, FIG. 8
T2 construct: chimeric CaR/GABABR2 (CaR extracellular and transmembrane domains, and intracellular GABABR2 domain); GABABR2 intracellular domain (fusion partner replacing the CaR tail); expressed in transfected cells; host or cells: Xenopus oocytes injected with in vitro-transcribed RNA
T2 sequence (P41180+O75899 with tags, fused parts or gaps): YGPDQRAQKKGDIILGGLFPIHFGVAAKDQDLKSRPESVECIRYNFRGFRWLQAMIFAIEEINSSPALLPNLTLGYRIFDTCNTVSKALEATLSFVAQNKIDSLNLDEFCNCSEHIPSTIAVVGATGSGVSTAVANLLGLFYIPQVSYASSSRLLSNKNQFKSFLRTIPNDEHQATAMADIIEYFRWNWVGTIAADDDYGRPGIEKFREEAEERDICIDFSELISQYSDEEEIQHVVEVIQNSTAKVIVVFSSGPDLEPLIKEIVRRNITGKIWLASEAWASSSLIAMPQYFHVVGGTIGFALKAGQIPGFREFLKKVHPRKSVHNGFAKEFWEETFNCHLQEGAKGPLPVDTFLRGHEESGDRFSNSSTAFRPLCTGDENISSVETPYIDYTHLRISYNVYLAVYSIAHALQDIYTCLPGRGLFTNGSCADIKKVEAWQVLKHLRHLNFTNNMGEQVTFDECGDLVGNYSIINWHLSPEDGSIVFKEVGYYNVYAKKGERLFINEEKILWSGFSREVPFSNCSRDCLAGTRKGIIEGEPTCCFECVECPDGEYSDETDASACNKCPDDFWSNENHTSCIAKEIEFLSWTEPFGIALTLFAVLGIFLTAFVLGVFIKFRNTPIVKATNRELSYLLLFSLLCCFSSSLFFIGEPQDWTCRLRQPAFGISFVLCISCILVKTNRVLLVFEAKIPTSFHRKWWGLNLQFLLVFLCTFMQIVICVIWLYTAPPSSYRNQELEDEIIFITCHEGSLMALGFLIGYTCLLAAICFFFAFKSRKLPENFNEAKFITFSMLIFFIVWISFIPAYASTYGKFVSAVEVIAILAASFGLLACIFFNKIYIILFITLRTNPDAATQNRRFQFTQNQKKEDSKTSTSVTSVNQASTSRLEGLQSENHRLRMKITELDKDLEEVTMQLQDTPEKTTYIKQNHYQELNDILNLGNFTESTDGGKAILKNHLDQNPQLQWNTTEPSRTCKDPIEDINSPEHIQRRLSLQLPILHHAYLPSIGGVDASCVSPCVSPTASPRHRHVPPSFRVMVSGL
Description: FIG. 8 illustrates the ability of a chimeric CaR/GABABR2 (CaR extracellular and transmembrane domains, and intracellular GABABR2 domain) to transduce a signal. Signal production was measured by detecting an increase in the calcium-activated chloride current. The line in the middle of the increase signifies a wash step.
In vitro-transcribed RNA (7 ng) encoding a chimeric CaR/GABABR2 (CaR extracellular and transmembrane domains, and intracellular GABABR2 domain) was co-injected with in vitro-transcribed RNA (2 ng) encoding Gα15 into Xenopus oocytes. Following a 72-hour incubation, the oocytes were voltage-clamped using standard electrophysiological techniques (B. Hille, Ionic Channels of Exictable Membranes, pp. 30-33, Sinauer Associates, Inc., Sunderland, Ma., 1992). Activation of the chimeric receptor was detected by increases in the calcium-activated chloride current.
In this assay, the Gα15 subunit acts to promote signal transduction through intracellular pathways that mobilize intracellular Ca^++.

mGluR2//CaR*Gαqi5 = mGluR2//CaR*Gαqi5 (Homo sapiens, UniProt Q14416, L8P); assay: Calcium-activated chloride current in Xenopus oocytes injected with G-protein fusion receptor cRNA; settings: 100 μM, Xenopus laevis oocytes, holding −60 mV, FIG. 15
mGluR8//CaR*Gαqi5 = biological target: T3, mGluR8//CaR*Gαqi5 (Homo sapiens, UniProt O00222); assay: as above; settings: 100 μM, Xenopus laevis oocytes, holding −60 mV, FIG. 15
T3 construct: ID; NO; 41; expressed in transfected cells; host or cells: Xenopus laevis oocytes injected with fusion receptor cRNA
Description: as §1, §2, §3, §4

T1 sequence (P41180 with tags, fused parts or gaps): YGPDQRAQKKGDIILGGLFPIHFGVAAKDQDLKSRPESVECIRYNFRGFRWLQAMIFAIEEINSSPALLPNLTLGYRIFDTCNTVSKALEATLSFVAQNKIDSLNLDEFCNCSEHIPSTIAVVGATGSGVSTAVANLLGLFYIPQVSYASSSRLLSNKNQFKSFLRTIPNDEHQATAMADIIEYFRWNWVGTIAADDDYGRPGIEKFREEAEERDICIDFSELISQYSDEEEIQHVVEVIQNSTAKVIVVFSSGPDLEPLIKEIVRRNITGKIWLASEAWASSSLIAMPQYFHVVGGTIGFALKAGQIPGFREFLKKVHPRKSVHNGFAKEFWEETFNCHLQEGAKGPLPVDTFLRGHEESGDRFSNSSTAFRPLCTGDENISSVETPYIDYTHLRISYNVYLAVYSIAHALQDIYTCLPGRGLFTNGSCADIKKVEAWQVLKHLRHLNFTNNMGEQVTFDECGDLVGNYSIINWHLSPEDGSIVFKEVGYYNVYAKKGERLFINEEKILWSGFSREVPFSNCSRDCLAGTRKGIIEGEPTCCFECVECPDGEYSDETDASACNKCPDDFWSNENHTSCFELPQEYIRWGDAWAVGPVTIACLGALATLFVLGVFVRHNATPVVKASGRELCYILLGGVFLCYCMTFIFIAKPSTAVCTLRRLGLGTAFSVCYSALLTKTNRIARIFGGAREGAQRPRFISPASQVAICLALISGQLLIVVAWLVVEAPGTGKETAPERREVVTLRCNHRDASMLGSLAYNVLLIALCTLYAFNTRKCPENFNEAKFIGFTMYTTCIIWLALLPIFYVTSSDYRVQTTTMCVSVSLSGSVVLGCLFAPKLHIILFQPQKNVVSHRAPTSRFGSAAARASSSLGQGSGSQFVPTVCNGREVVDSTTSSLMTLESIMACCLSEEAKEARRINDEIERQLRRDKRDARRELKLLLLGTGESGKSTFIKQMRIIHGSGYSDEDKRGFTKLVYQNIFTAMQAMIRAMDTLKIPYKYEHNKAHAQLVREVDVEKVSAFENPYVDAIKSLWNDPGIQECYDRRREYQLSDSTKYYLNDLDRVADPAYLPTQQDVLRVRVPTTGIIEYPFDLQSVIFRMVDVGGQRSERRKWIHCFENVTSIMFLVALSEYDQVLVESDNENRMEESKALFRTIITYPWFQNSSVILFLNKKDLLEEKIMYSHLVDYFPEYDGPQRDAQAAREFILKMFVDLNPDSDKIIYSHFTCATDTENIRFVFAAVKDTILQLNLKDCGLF
mGluR2//CaR*Gαqi5, sequence (Q14416 with tags, fused parts or gaps L8P): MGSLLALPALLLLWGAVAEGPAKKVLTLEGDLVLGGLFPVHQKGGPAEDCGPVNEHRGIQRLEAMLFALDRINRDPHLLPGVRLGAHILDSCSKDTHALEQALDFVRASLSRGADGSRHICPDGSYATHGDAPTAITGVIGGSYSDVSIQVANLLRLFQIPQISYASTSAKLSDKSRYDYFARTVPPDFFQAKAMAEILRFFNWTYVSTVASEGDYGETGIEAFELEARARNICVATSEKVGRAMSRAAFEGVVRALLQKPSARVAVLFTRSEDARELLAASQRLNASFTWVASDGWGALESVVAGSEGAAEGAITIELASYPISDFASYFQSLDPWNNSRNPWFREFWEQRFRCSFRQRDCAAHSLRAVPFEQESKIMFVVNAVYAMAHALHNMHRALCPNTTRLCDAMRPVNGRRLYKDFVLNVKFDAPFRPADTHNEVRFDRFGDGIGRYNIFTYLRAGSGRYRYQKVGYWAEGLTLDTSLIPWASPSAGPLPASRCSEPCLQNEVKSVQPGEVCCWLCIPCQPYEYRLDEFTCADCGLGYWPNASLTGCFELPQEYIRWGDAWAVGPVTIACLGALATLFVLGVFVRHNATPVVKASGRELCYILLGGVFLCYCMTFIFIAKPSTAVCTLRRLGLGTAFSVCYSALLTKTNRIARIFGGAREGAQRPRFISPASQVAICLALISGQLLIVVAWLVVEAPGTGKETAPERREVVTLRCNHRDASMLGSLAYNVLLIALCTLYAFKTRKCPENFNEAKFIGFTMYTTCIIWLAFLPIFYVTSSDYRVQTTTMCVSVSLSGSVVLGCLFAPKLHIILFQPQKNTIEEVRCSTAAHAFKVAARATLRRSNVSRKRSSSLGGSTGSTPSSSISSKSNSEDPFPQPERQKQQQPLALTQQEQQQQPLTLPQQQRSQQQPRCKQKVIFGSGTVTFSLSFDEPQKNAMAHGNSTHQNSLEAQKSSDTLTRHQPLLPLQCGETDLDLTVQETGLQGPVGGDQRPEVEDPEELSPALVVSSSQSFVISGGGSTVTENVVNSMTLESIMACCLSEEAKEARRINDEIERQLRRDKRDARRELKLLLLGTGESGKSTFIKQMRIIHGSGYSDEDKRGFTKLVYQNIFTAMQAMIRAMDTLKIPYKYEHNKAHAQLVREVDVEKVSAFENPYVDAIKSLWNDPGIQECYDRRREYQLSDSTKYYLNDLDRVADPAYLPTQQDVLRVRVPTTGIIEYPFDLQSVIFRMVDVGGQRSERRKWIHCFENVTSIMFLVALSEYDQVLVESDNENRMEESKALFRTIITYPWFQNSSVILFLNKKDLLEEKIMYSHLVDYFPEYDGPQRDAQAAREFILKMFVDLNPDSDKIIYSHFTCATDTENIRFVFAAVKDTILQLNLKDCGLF
T3 sequence (O00222 with tags, fused parts or gaps): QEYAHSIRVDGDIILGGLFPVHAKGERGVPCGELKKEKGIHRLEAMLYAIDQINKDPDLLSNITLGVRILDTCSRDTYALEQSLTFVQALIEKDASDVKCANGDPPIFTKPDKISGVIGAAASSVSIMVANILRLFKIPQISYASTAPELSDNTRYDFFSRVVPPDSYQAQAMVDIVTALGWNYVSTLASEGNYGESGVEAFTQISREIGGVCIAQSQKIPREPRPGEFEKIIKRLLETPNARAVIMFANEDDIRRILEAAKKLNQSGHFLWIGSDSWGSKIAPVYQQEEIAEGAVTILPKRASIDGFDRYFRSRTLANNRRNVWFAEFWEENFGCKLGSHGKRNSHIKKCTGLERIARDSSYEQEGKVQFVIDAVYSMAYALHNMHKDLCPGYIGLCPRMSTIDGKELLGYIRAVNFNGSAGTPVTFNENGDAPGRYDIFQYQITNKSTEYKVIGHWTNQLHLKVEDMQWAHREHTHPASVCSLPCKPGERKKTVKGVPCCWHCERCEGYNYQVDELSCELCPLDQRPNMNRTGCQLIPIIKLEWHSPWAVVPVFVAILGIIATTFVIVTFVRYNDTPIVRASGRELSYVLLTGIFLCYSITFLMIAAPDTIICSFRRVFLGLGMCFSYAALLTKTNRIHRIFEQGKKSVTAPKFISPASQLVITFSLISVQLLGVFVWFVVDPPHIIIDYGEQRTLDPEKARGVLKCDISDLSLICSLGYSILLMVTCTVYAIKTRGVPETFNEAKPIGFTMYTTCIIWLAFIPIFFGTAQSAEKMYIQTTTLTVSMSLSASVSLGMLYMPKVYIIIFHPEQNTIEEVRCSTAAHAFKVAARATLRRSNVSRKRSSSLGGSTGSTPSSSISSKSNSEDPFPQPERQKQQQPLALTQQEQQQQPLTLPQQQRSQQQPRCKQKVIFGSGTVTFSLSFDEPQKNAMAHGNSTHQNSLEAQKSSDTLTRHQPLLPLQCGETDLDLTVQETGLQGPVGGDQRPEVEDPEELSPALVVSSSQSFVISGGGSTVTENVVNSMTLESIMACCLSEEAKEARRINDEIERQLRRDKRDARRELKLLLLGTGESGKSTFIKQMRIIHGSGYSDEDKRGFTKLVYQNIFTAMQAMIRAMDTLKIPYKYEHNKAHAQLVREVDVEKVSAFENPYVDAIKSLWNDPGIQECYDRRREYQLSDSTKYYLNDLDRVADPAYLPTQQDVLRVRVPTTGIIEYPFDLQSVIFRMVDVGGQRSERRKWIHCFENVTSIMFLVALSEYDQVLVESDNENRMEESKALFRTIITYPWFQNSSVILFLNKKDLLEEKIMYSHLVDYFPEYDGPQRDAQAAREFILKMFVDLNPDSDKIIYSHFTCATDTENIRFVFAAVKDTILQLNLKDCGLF

Row | SMILES | receptor fusion activation, increase in calcium-activated chloride current (ICl) (CaR/mGluR2*Gqi5) | activation of the chimeric receptor detected by increases in the calcium-activated chloride current [1] | receptor fusion activation, increase in calcium-activated chloride current (ICl) (mGluR2//CaR*Gαqi5) | receptor fusion activation, increase in calcium-activated chloride current (ICl) (mGluR8//CaR*Gαqi5)
1 | [Gd+3] [Gd^3+] | activated | reversible, oscillatory increases in the calcium-activated chloride current | – | –
2 | N[C@@H](CCC(=O)O)C(=O)O [L-glutamate] | – | – | elicited a response | elicited a response
